According to patent US5998180A, “Nitrilase from Rhodoccus rhodochrous for converting acrylonitrile directly to acrylic acid” (priority 1995, dated 1999):
Like-named read-outs stand apart in the source and are kept apart here.

Key:
[1] = biological target: T1, Rhodococcus rhodochrous K22 nitrilase (Rhodococcus rhodochrous, UniProt Q02068); conditions: read-out: Km (acrylonitrile); reported in J. Bacteriol. 172, 9, 4807-4815; cited from earlier work
T1 sequence (Q02068 1-383): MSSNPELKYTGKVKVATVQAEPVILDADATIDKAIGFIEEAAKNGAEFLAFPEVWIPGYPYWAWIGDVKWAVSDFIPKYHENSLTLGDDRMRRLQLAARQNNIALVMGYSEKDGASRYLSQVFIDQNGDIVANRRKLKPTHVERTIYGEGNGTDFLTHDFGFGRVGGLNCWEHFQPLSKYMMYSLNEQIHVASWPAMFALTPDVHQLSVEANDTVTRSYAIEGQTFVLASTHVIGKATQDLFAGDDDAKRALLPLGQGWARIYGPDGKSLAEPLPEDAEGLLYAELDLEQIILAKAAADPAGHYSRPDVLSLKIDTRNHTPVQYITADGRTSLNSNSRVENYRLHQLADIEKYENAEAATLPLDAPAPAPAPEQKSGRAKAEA

[2] = tested on: Rhodococcus rhodochrous NCIMB 40757 nitrilase; experiment: Nitrilase kinetics of whole cells (acrylonitrile to ammonium acrylate); assay type: biochemical; conditions: for Km: 30° C.
Description: A novel nitrilase is characterised by having Km for acrylonitrile below 500 μM. Throughout this specification Km refers to Km measured at pH 7.0. […] In particular we use the conditions of Example 6 below. […] Microbial., 135 3153-3164 and those described for lactate dehydrogenase by Wagner (1990) Tibtech., 8, 263-270 will yield nitrilase having Km values up to 60 or 100, or perhaps 300 μM, and Km values down to. 9.4 and even 3.8 μM.
A novel nitrilase of the invention is characterised by having Ki for ammonium acrylate of at least 100 mM, preferably at least 150 or 200, more preferably at least 250 mM. Throughout this specification Ki refers to Ki measured at pH 7.0. […] Preferably measurement is under the conditions given in Example 7 below. […] It is envisaged that standard techniques and selection procedures, eg mutagenesis, will yield nitrilase having Ki for ammonium acrylate up to 300 mM or even 800 mM or greater.
(§1) The cells of the Rhodococcus rhodochrous strain grown as described in Example 1 were suspended in solutions of 50 mM pH 7 sodium phosphate buffer at 30° C. containing the concentrations of acrylonitrile shown in the table below. Samples were taken over time to determine the acrylonitrile, acrylamide and ammonium acrylate concentrations in the cell suspensions.
as §1, with “1.2 M ammonium acrylate” for “50 mM pH 7 sodium phosphate buffer”

[3] = tested on: Fusarium oxysporum f.sp. melonis nitrilase; conditions: read-out: Km (acrylonitrile), cited from earlier work

Row | SMILES | Km [1] | Km ([2]; whole cell form, 50 mM pH 7 sodium phosphate buffer, read-out: Km for acrylonitrile) | Km ([2]; whole cells in 1.2 M ammonium acrylate, read-out: apparent Km (acrylonitrile) in 1.2 M ammonium acrylate) | Km ([3]; Goldlust and Bohak (1989)) | Km ([3]; reported in Biotech. Appl. Biochem., 1989, 11, 581-601) | ratio (Ki for ammonium acrylate)/(Km for acrylonitrile) ([2]; initial experiments)
1 | C=CC#N [acrylonitrile] | 1140 µM | 30.6 µM | 145 µM | 17000 µM | 17000 µM | –
2 | C=CC(=O)O [ammonium acrylate] | – | – | – | – | – | greater than 10000
